The subject of experiment [1] is TNBC cells. As to the kind of experiment: Ki67-staining immunofluorescence. It counts as cell-based, Human. Particulars: 48 h, versus controls. The protocol: (§1) Cells were plated on glass coverslips in 24-well plates prior to treatment. After being exposed to different doses of compound 7a for 48 h, cells were washed with PBS for three times, fixed with 4% paraformaldehyde-PBS for 30 min, and then followed by permeabilization with 0.1% Triton X-100 for 10 min. Next, the samples were blocked with QuickBlock Blocking Buffer for Immunol Staining (Beyotime) for 30 min at 37° C., and incubated with anti-Ki67 (1:250), anti-LC3B antibody (1:250), anti-SQSTM1 antibody (1:250) or anti-γH2AX (1:250) overnight at 4° C. After washing with PBS three times, the stained cells were incubated with Alexa Fluor-conjugated secondary antibodies (1:2000) for 1 hour at room temperature. Moreover, 1 mg/mL DAPI dissolved in PBS were employed to label nuclei (30 min). Images were captured with a High Content analysis system (Perkinelmer, MA, USA).

Experiment [2] has as its system TNBC cells. As to the kind of experiment: Cell counting assay with microscope. Format: cell-based, Human. The conditions noted are these: 48 h. On the procedure:
FIG. 2A: cell viability was measured with the MTT assay. MDA-MB-231 and MDA-MB-468 cells were exposed to the indicated concentrations of compound 7a for 24, 48 and 72 h. FIGS. 2B and 2C: cell morphology and cell count of MDA-MB-231 and MDA-MB-468 cells were captured with microscope after treating with the indicated concentrations of compound 7a for 48 h. These cells were visualized with the images and quantitated by histogram, Scale bar, 100 μm. FIGS. 2D and 2E: colony formation assay was performed to evaluate TNBC growth in vitro after treatment with the indicated concentrations of compound 7a for 14 days. The colonies were visualized with the images and quantitated by histogram.

In another experiment the test system is HCT116 cells. As to the kind of experiment: mCherry-GFP-LC3B reporter autophagic flux assay. Format: cell-based. The conditions noted are these: 12 h treatment, versus control. The protocol:
Mcherry-EGFP-LC3B overexpression system was co-transfected with lenviral packaging vectors pSPAX2 and pMD2G into HEK293FT cells using Fugene Transfection Reagent (Promega, MW, USA). Virus particles were collected after 48 h infection, filtered through a 0.22 μm membrane, added into colorectal cancer cell HCT116, and then incubated for 12 h at 37° C. The medium was replaced and HCT116 cells were selected for puromycin tolerance (10 μg/mL) to obtain the stable cells expressing mcherry-EGFP-LC3B.

The next experiment relates to MDA-MB-231 cells. As to the kind of experiment: Annexin V-FITC/PI apoptosis assay by flow cytometry. It counts as cell-based, Human. Particulars: 48 h, dose-dependent; from 3.64% in control; p<0.01. The protocol: (§2) Cells in a logarithmic growth phase were harvested and seeded into six-well plates with 30% cell density and cultured overnight in an incubator. Once adhered to the bottom of the plate, cells were treated with different doses of compound 7a for 48 h, and then employed in flow cytometry analysis. For cell cycle assay, the collected cells were washed with phosphate-buffered saline (PBS) and fixed with 70% cold ethanol in 4° C. for 24 h. After washing three times of PBS, the fixed cells were incubated in 200 μL PBS solution containing 1 μL propidium iodide (BD, CA, USA) and 1 μL RNase (Sigma Aldrich, USA) at 37° C. for 0.5 h. Finally, cells were analyzed using BD Accuri™ C6 flow cytometry (BD Biosciences, USA). For the cell apoptosis assay, after the cells were harvested and washed twice with PBS, the percentage of apoptotic cells were measured using an Annexin V-FITC/PI Apoptosis Assay Kit (BD Biosciences, USA). The BD Accuri™ C6 flow cytometry was used to analyze the apoptosis process. The FlowJo software was used to analyze the cell cycle arrest and apoptotic rate.

In a further experiment the test system is MDA-MB-468 cells. The description is as above. Format: cell-based, Human. Particulars: 48 h, dose-dependent; from 5.02% in control; p<0.01. On the procedure:
as §2

For experiment [3], the system named is MDA-MB-231 and MDA-MB-468 cells. As to the kind of experiment: Immunoblotting of cell cycle, apoptosis, autophagy and DDR proteins. Format: cell-based, Human. On the procedure:
MDA-MB-231 and MDA-MB-468 cells were treated with the compound 7a (0, 5, 10 and 20 μmol/L) for 48 h, total protein was extracted using RIPA buffer (Beyotime, Shanghai, China) supplemented with protease/phosphatase inhibitor cocktail (Roche, Mannheim, Germany) at 4° C. for 30 min. The protein concentration was quantified by the BCA protein assay kit (Beyotime). Protein samples (50 μg) were separated by SDS-PAGE with appropriate gel concentration and subsequent electrophoretically transferred onto PVDF membranes (Millipore Corporation, MA, USA). After blocking with 5% BSA for 2 h at ambient temperature, the membranes sections were incubated gently with the indicated primary antibodies overnight at 4° C. and washed with TBST for 5×5 minutes. Subsequently, the membranes were then incubated with corresponding IRDye 800CW goat anti-mouse IgG (H+L) or IRDye 680LT donkey anti-rabbit IgG (H+L) secondary antibody for 1 h. The objective protein signal was obtained using an odyssey two-color infrared fluorescence imaging system (Li-cor, NE, USA). For immunoprecipitation, harvested cells were lysed in ice-cold NP-40 buffer including 50 mM Tris-HCl (pH 7.4), 150 mM NaCl, 0.5% NP-40, 1 mM Na3VO4, 50 mM NaF and protease inhibitor cocktail (Roche). Lysate was centrifuged at 12,000×g for 20 min at 4° C. The supernatant was incubated with anti-HA at 4° C. overnight, followed by incubation with Protein-A/G beads overnight (Beyotime). The proteins were washed six times with ice-cold NP-40 buffer and eluted with SDS loading buffer containing mercaptoethanol by boiling for 10 min.
(In general: A western blot detects proteins with antibodies after separation by electrophoresis.)

Experiment [4] shares this test system. As to the kind of experiment: Mitochondrial membrane potential (JC-1) assay. Format: cell-based, Human. Particulars: 20 μM/L, 48 h. On the procedure:
The JC-1 Assay Kit (Beyotime) was used to monitor the alteration of mitochondrial membrane potential as the manufacturer's instructions. MDA-MB-231 and MDA-MB-468 cells were seeded in six-well plates with an appropriate density (2×10^5/mL) and then treated with compound 7a at various concentrations (0, 5, 10, 20 μM) for 48 h. Then 100 μL of JC-1 staining solution was added into 1 mL of medium and incubated for 20 min at cell incubator. The BD Accuri™ C6 flow cytometry was used to analyze the samples. Each experiment was carried out in triplicate, and the results were expressed as the mean±SD.

For experiment [5] the test system is unchanged. As to the kind of experiment: Immunofluorescence of γH2AX and p62. It counts as cell-based, Human. On the procedure:
as §1

For `O=C(NC1CCCCC1)c1[nH]cnc1-c1nc2ccccc2[nH]1` [Compound 7a], the “rate of Ki67-positive cells” value in the experiment on TNBC cells [1] is recorded as “notably reduced rate of Ki67-positive cells”. In addition, in the experiment with TNBC cells [2], the “proliferation by cell count” value was “significantly inhibited proliferation of TNBC cells”. Also, in the experiment with HCT116 cells, the “number of yellow fluorescent vesicles (autophagosomes)” value was “significant increase in the number of yellow fluorescent vesicles”. For the same compound, in the experiment with MDA-MB-231 cells, the “proportion of late-phase apoptosis” value was determined as 34.2%. Besides, the “proportion of late-phase apoptosis” value in the experiment on MDA-MB-468 cells amounted to 36.4%. Also, the p62 level result in experiment [3] (TNBC cells) is given as “resulted in a p62 accumulation”. Besides, in experiment [3] (immunoblotting), the “expression of BRCA2, RAD51 and RNF8” value is recorded as “significantly reduced”; the “levels of BRCA2 and RAD51” value is listed as “dramatically decreased levels of both proteins in a dose-dependent manner”; the “phosphorylation of ATM, NBS1 and SMC1” value is given as “activated”. In addition, the “p62 in nuclear and cytoplasmic proteins” value in experiment [3] (immunoblotting of fractions) was “drastic p62 increase in the nucleus and cytoplasm in a dose-dependent manner”. Moreover, in experiment [3] (immunoblotting, 48 h), the “P21 and phosphorylation levels of CHK1 (Serine 345) and CHK2 (Threonine 68)” value was “increased P21 and the phosphorylation levels of CHK1 (Serine 345) and CHK2 (Threonine 68) in a dose-dependent manner”; the “anti-apoptotic protein Bcl-2” value is on record as “decrease of anti-apoptotic protein Bcl-2”; the “cytochrome c, cleaved caspase-3, cleaved caspase-9 and cleaved PARP” value is listed as “increased in a dose-dependent manner”; the “levels of Cyclin A, Cyclin B, CDK1 and CDK2” value is “decreased the levels of Cyclin A, Cyclin B, CDK1 and CDK2”. For the same compound, the “pro-apoptotic proteins Bak, Bim and Bax” value in experiment [3] (immunoblotting, 48 h) is on record as “elevated in a dose-dependent manner”. Moreover, the γH2AX level result in experiment [3] (immunoblotting, dose-dependent) is on record as “significantly increased”. In addition, in experiment [3] (immunofluorescence and western blotting, dose- and time-dependent), the “conversion to LC3B-II” value is listed as “significantly induced”. Moreover, the “cells with reduced mitochondrial membrane potential” value in experiment [4] is on record as about 50%. Moreover, the γH2AX foci result in experiment [5] (48 h) is reported as “accumulation of γH2AX foci in nuclei”. Moreover, the “p62 signal in nuclei” value in experiment [5] (dose-dependent) was “accumulated in the nuclei”.

Values taken from patent US11512073B2, “Benzimidazole derivatives, pharmaceutical composition comprising the same, and use thereof” (Chongqing University of Arts and Sciences, priority 2020, dated 2022).
